Molecular target: T1, human GLP-1 receptor (Homo sapiens, UniProt P43220)
T1 construct: expressed in transfected cells
Test: GLP-1R cAMP Assay (HitHunter cAMP accumulation)
Format: cell-based
Conditions: cAMP accumulation, CHO cells stably overexpressing human GLP-1 receptor, 30 min treatment; read-out: EC50
Method in brief: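 CHO cells stably expressing human GLP-1R, 10,000 cells/well in HBSS with 10 mM HEPES and 625 μM IBMX, were mixed with anti-cAMP antibody reagent. Compound was applied as a 20-point dose response in triplicate for 30 min. After lysis and overnight detection, luminescence was read and dose-response curves analysed.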

T1 sequence (P43220 24-463): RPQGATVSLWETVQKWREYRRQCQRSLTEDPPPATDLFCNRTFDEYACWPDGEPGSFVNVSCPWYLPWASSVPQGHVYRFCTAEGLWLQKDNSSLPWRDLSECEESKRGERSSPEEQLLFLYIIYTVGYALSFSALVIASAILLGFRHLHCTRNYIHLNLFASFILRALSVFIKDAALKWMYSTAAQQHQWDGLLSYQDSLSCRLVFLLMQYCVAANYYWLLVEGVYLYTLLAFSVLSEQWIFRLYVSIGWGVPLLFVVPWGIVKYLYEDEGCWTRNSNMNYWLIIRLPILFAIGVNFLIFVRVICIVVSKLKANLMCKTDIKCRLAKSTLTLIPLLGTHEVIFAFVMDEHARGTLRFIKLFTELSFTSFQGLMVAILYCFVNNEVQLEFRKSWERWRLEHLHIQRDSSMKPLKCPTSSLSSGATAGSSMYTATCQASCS

EC50, < 0.05 µM:
N#Cc1ccc(OCc2nccc(C3=CCN(Cc4nc5ccc(C(=O)O)cc5n4C[C@@H]4CCO4)C3)n2)c(F)c1 [Example 395, (S)-2-((3-(2-((4-Cyano-2-fluorophenoxy)methyl)pyrimidin-4-yl)-2,5-dihydro-1H-pyrrol-1-yl)methyl)-1-(oxetan-2-ylmethyl)-1H-benzo[d]imidazole-6-carboxylic acid]
O=C(O)c1ccc2nc(CN3CC=C(c4cncc(COc5ccc(Cl)cc5F)n4)C3)n(C[C@@H]3CCO3)c2c1 [Example 396, (S)-2-((3-(6-((4-Chloro-2-fluorophenoxy)methyl)pyrazin-2-yl)-2,5-dihydro-1H-pyrrol-1-yl)methyl)-1-(oxetan-2-ylmethyl)-1H-benzo[d]imidazole-6-carboxylic acid]
O=C(O)c1ccc2nc(CN3CCC(c4cc(COc5ccc(Cl)cc5F)ccn4)C3)n(C[C@@H]3CCO3)c2c1 (stereo partly drawn) [Example 397, 2-((3-(4-((4-Chloro-2-fluorophenoxy)methyl)pyridin-2-yl)pyrrolidin-1-yl)methyl)-1-(((S)-oxetan-2-yl)methyl)-1H-benzo[d]imidazole-6-carboxylic acid]
O=C(O)c1ccc2nc(CN3CC=C(c4ccc(F)c(COc5ccc(Cl)cc5F)n4)C3)n(C[C@@H]3CCO3)c2c1 [Example 407, (S)-2-((3-(6-((4-Chloro-2-fluorophenoxy)methyl)-5-fluoropyridin-2-yl)-2,5-dihydro-1H-pyrrol-1-yl)methyl)-1-(oxetan-2-ylmethyl)-1H-benzo[d]imidazole-6-carboxylic acid]
O=C(O)c1ccc2nc(CN3CC=C(c4nccc(COc5ccc(Cl)cc5F)n4)C3)n(C[C@@H]3CCO3)c2c1 [Example 435, (S)-2-((3-(4-((4-Chloro-2-fluorophenoxy)methyl)pyrimidin-2-yl)-2,5-dihydro-1H-pyrrol-1-yl)methyl)-1-(oxetan-2-ylmethyl)-1H-benzo[d]imidazole-6-carboxylic acid]
O=C(O)c1cc(F)c2nc(Cc3ccc(Oc4ccnc(COc5ccc(Cl)cc5F)c4)cc3F)n(C[C@@H]3CCO3)c2c1 [Example 459, (S)-2-(4-((2-((4-Chloro-2-fluorophenoxy)methyl)pyridin-4-yl)oxy)-2-fluorobenzyl)-4-fluoro-1-(oxetan-2-ylmethyl)-1H-benzo[d]imidazole-6-carboxylic acid]
CCn1cncc1Cn1c(Cc2ccc(Oc3ccnc(COc4ccc(C#N)cc4F)n3)cc2F)nc2ccc(C(=O)O)cc21 [Example 460, 2-(4-((2-((4-Cyano-2-fluorophenoxy)methyl)pyrimidin-4-yl)oxy)-2-fluorobenzyl)-1-((1-ethyl-1H-imidazol-5-yl)methyl)-1H-benzo[d]imidazole-6-carboxylic acid]
O=C(O)c1cc(F)c2nc(Cc3ccc(Oc4ccnc(COc5ccc(Cl)cc5F)c4)c(F)c3)n(C[C@@H]3CCO3)c2c1 [Example 471, (S)-2-(4-((2-((4-Chloro-2-fluorophenoxy)methyl)pyridin-4-yl)oxy)-3-fluorobenzyl)-4-fluoro-1-(oxetan-2-ylmethyl)-1H-benzo[d]imidazole-6-carboxylic acid]
O=C(O)c1ccc2nc(CN3CC=C(c4cnc(COc5ccc(Cl)cc5Cl)o4)C3)n(C[C@@H]3CCO3)c2c1 [Example 474, (S)-2-((3-(2-((2,4-Dichlorophenoxy)methyl)oxazol-5-yl)-2,5-dihydro-1H-pyrrol-1-yl)methyl)-1-(oxetan-2-ylmethyl)-1H-benzo[d]imidazole-6-carboxylic acid]

Reference: patent publication US20220396569A1 (Carmot Therapeutics, Inc., priority 2021, published 2022)
